According to patent publication US20260285875A1, “INHIBITORS OF PARG” (858 Therapeutics, Inc., priority 2023, published 2026):

What follows are compounds tested against T1, cellular PARG (Homo sapiens, UniProt Q86W56) (assay: Nuclear PAR accumulation assay (immunofluorescence high-content imaging, MMS-treated HeLa cells)). Conditions: 1 hour compound then MMS 50 μg/mL for an additional hour.
T1 construct: endogenous in cells; host or cells: HeLa
Format: cell-based
Method in brief: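 HeLa cells pretreated with compound for 1 h at 37° C, then given 50 μg/mL MMS for another hour. After methanol fixation, PAR was immunostained with DAPI nuclear counterstain; per-nucleus intensity and percent PAR-positive cells were imaged at 20× (≥1,000 cells/well). IC50 from four-parameter logistic fit.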

T1 sequence (Q86W56 whole entry): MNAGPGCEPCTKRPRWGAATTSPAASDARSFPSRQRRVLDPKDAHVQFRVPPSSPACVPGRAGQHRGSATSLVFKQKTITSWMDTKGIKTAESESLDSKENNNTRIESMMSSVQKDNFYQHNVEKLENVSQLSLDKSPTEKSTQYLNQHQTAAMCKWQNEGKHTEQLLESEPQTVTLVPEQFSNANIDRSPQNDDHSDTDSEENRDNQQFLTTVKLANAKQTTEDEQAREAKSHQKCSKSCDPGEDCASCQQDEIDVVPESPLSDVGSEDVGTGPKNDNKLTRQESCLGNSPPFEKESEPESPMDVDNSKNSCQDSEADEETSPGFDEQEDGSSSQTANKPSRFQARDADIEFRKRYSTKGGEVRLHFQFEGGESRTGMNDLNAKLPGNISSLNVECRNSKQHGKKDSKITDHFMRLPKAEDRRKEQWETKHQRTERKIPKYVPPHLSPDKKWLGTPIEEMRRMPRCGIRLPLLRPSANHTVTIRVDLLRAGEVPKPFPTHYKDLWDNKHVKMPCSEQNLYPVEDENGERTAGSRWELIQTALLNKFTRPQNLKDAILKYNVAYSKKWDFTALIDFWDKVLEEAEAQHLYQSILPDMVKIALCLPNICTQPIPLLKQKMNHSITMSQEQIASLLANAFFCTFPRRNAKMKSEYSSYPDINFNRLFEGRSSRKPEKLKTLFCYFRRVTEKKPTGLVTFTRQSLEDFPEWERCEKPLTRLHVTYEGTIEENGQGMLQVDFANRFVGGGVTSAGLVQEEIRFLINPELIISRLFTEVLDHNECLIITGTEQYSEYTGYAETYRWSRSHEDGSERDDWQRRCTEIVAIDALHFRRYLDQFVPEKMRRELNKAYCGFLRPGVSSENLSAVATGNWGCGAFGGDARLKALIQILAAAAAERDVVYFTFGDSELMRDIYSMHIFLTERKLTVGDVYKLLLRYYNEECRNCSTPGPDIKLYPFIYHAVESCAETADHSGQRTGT

SMILES | IC50 [nM]
CN1C(=O)c2cc(S(=O)(=O)NC3(C)CC3)ccc2N2C1=NCC2C#Cc1ccc2nccn2n1 (centres unmarked) [Example 176, 1-(imidazo[1,2-b]pyridazin-6-ylethynyl)-4-methyl-N-(1-methylcyclopropyl)-5-oxo-1,2,4,5-tetrahydroimidazo[1,2-a]quinazoline-7-sulfonamide] | 100 to 1000
C[C@@H]1CN=C2N(Cc3cnn4c3CNCC4)C(=O)c3cc(S(=O)(=O)NC4(C)CC4)ccc3N21 [Example 177, (R)-1-methyl-N-(1-methylcyclopropyl)-5-oxo-4-((4,5,6,7-tetrahydropyrazolo[1,5-a]pyrazin-3-yl)methyl)-1,2,4,5-tetrahydroimidazo[1,2-a]quinazoline-7-sulfonamide] | 100 to 1000
CN1C(=O)c2cc(S(=O)(=O)NC3(C)CC3)ccc2N2C1=NCC2C#Cc1cnn2c1OCC1(COC1)C2 (centres unmarked) [Example 178, 1-((5′H,7′H-spiro[oxetane-3,6′-pyrazolo[5,1-b][1,3]oxazin]-3′-yl)ethynyl)-4-methyl-N-(1-methylcyclopropyl)-5-oxo-1,2,4,5-tetrahydroimidazo[1,2-a]quinazoline-7-sulfonamide] | 100 to 1000
CN1C(=O)c2cc(S(=O)(=O)NC3(C)CC3)ccc2N2C1=NCC2C#Cc1cnsc1 (centres unmarked) [Example 179, 1-(isothiazol-4-ylethynyl)-4-methyl-N-(1-methylcyclopropyl)-5-oxo-1,2,4,5-tetrahydroimidazo[1,2-a]quinazoline-7-sulfonamide] | < 100
CN1C(=O)c2cc(S(=O)(=O)NC3(C)CC3)ccc2N2C1=NC[C@H]2C#Cc1cnc2ccc(C#N)nn12 [Example 180, (R)-1-((6-cyanoimidazo[1,2-b]pyridazin-3-yl)ethynyl)-4-methyl-N-(1-methylcyclopropyl)-5-oxo-1,2,4,5-tetrahydroimidazo[1,2-a]quinazoline-7-sulfonamide] | < 100
COc1ccc2ncc(C#C[C@@H]3CN=C4N(C)C(=O)c5cc(S(=O)(=O)NC6(C)CC6)ccc5N43)n2n1 [Example 181, (R)-1-((6-methoxyimidazo[1,2-b]pyridazin-3-yl)ethynyl)-4-methyl-N-(1-methylcyclopropyl)-5-oxo-1,2,4,5-tetrahydroimidazo[1,2-a]quinazoline-7-sulfonamide] | < 100
Cc1cnn2c(C#C[C@@H]3CN=C4N(C)C(=O)c5cc(S(=O)(=O)NC6(C)CC6)ccc5N43)cnc2c1 [Example 182, (R)-4-methyl-N-(1-methylcyclopropyl)-1-((7-methylimidazo[1,2-b]pyridazin-3-yl)ethynyl)-5-oxo-1,2,4,5-tetrahydroimidazo[1,2-a]quinazoline-7-sulfonamide] | < 100
Cc1ccc2ncc(C#C[C@@H]3CN=C4N(C)C(=O)c5cc(S(=O)(=O)NC6(C)CC6)ccc5N43)n2n1 [Example 183, (R)-4-methyl-N-(1-methylcyclopropyl)-1-((6-methylimidazo[1,2-b]pyridazin-3-yl)ethynyl)-5-oxo-1,2,4,5-tetrahydroimidazo[1,2-a]quinazoline-7-sulfonamide] | < 100
[2H]C([2H])([2H])N1C(=O)c2cc(S(=O)(=O)NC3(C)CC3)ccc2N2C1=NCC2C#Cc1cnc2cccnn12 (centres unmarked) [Example 184, 1-(imidazo[1,2-b]pyridazin-3-ylethynyl)-4-(methyl-d3)-N-(1-methylcyclopropyl)-5-oxo-1,2,4,5-tetrahydroimidazo[1,2-a]quinazoline-7-sulfonamide] | < 100
CN1C(=O)c2cc(S(=O)(=O)NC3(C)CC3)ccc2N2C1=NC[C@H]2C#Cc1ccnn1C [Example 185, (R)-4-methyl-1-((1-methyl-1H-pyrazol-5-yl)ethynyl)-N-(1-methylcyclopropyl)-5-oxo-1,2,4,5-tetrahydroimidazo[1,2-a]quinazoline-7-sulfonamide] | < 100
CCN1C(=O)c2cc(S(=O)(=O)NC3(C)CC3)ccc2N2C1=NC[C@H]2C#CC1(N(C)C)CC1 [Example 186, (R)-1-((1-(dimethylamino)cyclopropyl)ethynyl)-4-ethyl-N-(1-methylcyclopropyl)-5-oxo-1,2,4,5-tetrahydroimidazo[1,2-a]quinazoline-7-sulfonamide] | < 100
